# Data: ChEMBL document CHEMBL5316354, “From Natural Sources to Synthetic Derivatives: The Allyl Motif as a Powerful Tool for Fragment-Based Design in Cancer Treatment” (J Med Chem, 2023)
# Assays:
# MCF7 [1] = assay: Antitumor activity against human MCF7 cells assessed as cell growth inhibition incubated for 48 hrs; assay type: functional, cell-based; settings: MCF7, 48 h
# SGC-7901 = assay: Antitumor activity against human SGC-7901 cells assessed as cell growth inhibition; assay type: functional, cell-based
# BGC-823 [2] = assay: Antitumor activity against human BGC-823 cells assessed as cell growth inhibition; assay type: functional, cell-based
# PC-3 = assay: Antitumor activity against human PC-3 cells assessed as cell growth inhibition; assay type: functional, cell-based
# DU-145 = assay: Antitumor activity against human DU-145 cells assessed as cell growth inhibition; assay type: functional, cell-based
# MCF7 [3] = assay: Antitumor activity against human MCF7 cells assessed as cell growth inhibition; assay type: functional, cell-based
# HeLa = assay: Antitumor activity against human HeLa cells assessed as cell growth inhibition; assay type: functional, cell-based
# SW480 = assay: Antitumor activity against human SW480 cells assessed as inhibition of cell growth incubated for 24 to 48 hrs; assay type: functional, cell-based
# NCI-H23 = assay: Antitumor activity against human NCI-H23 cells assessed as cell growth inhibition; assay type: functional, cell-based
# SW-620 = assay: Antitumor activity against human SW620 cells assessed as cell growth inhibition; assay type: functional, cell-based
# MCF7 [4] = assay: Antitumor activity against human MCF7 expressing HER-2 cells assessed as cell growth inhibition; assay type: functional, cell-based
# MCF7 [5] = assay: Antitumor activity against human MCF7 cells assessed as decrease in cell viability; assay type: functional, cell-based
# BGC-823 [6] = assay: Antitumor activity against human BGC-823 cells xenografted in BALB/c nude mouse assessed as tumor growth inhibition at 20 mg/kg, ip administered for 32 days relative to control; assay type: functional; settings: BGC-823, 768 h, time 32 day
# BGC-823 [7] = assay: Antitumor activity against human BGC-823 cells xenografted in BALB/c nude mouse assessed as tumor growth inhibition at 40 mg/kg, ip administered for 32 days relative to control; assay type: functional; settings: BGC-823, 768 h, time 32 day
# BGC-823 [8] = assay: Antitumor activity against human BGC-823 cells xenografted in BALB/c nude mouse assessed as tumor growth inhibition at 30 mg/kg, ip administered for 32 days relative to control; assay type: functional; settings: BGC-823, 768 h, time 32 day
# MG-63 = assay: Antiproliferative activity against human MG-63 cells assessed as growth inhibition by MTT assay; assay type: functional
# MDA-MB-231 [9] = assay: Antitumor activity against human MDA-MB-231 cells assessed as cell viability at 50 uM relative to control; assay type: functional; settings: read-out: Activity
# Ca9-22 [10] = assay: Antitumor activity against human Ca9-22 cells assessed as cellular proliferation at 3 uM; assay type: functional
# Ca9-22 [11] = assay: Antitumor activity against human Ca9-22 cells assessed as cellular proliferation at 30 uM; assay type: functional
# Rattus norvegicus [12] = assay: Immunomodulatory activity in testosterone propionate induced benign prostatic hyperplasia Wistar rat model assessed as reduction in DHT level at 50 mg/kg, po relative to control; assay type: functional
# Rattus norvegicus [13] = assay: Immunomodulatory activity in testosterone propionate induced benign prostatic hyperplasia Wistar rat model assessed as reduction in serum testosterone level at 50 mg/kg, po relative to control; assay type: functional
# Rattus norvegicus [14] = assay: Immunomodulatory activity in testosterone propionate induced benign prostatic hyperplasia Wistar rat model assessed as reduction in prostate weight at 50 mg/kg, po relative to control; assay type: functional
# MCF7 [15] = assay: Antitumor activity against human MCF7 cells assessed as inhibition of cell proliferation in the presence of 1mM of eugenol; assay type: functional, cell-based
# MDA-MB-231 [16] = assay: Antitumor activity against human MDA-MB-231 cells assessed as cell viability at 0.5 uM relative to control; assay type: functional; settings: read-out: Activity
# MCF7 [17] = assay: Antitumor activity against human MCF7 cells assessed as inhibition of cell proliferation; assay type: functional, cell-based
# HepG2 [18] = assay: Cytotoxicity against human HepG2 cells; assay type: functional
# HepG2 [19] = assay: Antitumor activity against human HepG2 cells assessed as reduction in cell growth; assay type: functional, cell-based
# MDA-MB-231 [20] = assay: Antitumor activity against human MDA-MB-231 cells assessed as inhibition of cell proliferation at 40 uM relative to control; assay type: functional
# SK-BR-3 [21] = assay: Antitumor activity against human SK-BR-3 cells assessed as inhibition of cell proliferation at 60 uM relative to control; assay type: functional
# MDA-MB-231 [22] = assay: Antitumor activity against human MDA-MB-231 cells assessed as inhibition of cell proliferation at 60 uM relative to control; assay type: functional
# SK-BR-3 [23] = assay: Antitumor activity against human SK-BR-3 cells assessed as inhibition of cell proliferation at 40 uM relative to control; assay type: functional
# Rattus norvegicus [24] = assay: Immunomodulatory activity in testosterone propionate induced benign prostatic hyperplasia Wistar rat model assessed as reduction in DHT level at 5 mg/kg, po relative to control; assay type: functional
# Rattus norvegicus [25] = assay: Immunomodulatory activity in testosterone propionate induced benign prostatic hyperplasia Wistar rat model assessed as reduction in serum testosterone level at 5 mg/kg, po relative to control; assay type: functional
# Rattus norvegicus [26] = assay: Immunomodulatory activity in testosterone propionate induced benign prostatic hyperplasia Wistar rat model assessed as reduction in prostate weight at 5 mg/kg, po relative to control; assay type: functional
# SK-BR-3 [27] = assay: Antitumor activity against human SK-BR-3 cells assessed as cell growth inhibition; assay type: functional, cell-based
# HL-60 = assay: Antitumor activity against human HL-60 cells assessed as cell growth inhibition; assay type: functional, cell-based
# NCI-H226 = assay: Antitumor activity against human NCI-H226 cells assessed as cell growth inhibition; assay type: functional, cell-based
# [28] = Antitumor activity against human OC2 cells assessed as increase in cell proliferation at 10 uM relative to control; assay type: functional
# [29] = Antitumor activity against human Osteosarcoma cells assessed as increase in intracellular calcium concentration; assay type: functional, cell-based; settings: Osteosarcoma cell
structure (smiles),measurement,setting,value
C/C=C/c1ccc(O)c(OC)c1,IC50,MCF7 [1],11.4 µM
C=CCc1cc(/C=C2\CC/C(=C\c3ccc(O)c(CC=C)c3)C2=O)ccc1O,IC50,SGC-7901,6.9 µM
same,IC50,BGC-823 [2],7.1 µM
C=CCOc1cccc2c1C(=O)C=C(C)C2=O,IC50,PC-3,32.2 µM
Cn1[se]c2ccccc2c1=O,IC50,DU-145,30.2 µM
same,IC50,MCF7 [3],32.7 µM
CCCCn1[se]c2ccccc2c1=O,IC50,DU-145,28 µM
same,IC50,MCF7 [3],13.8 µM
CC(C)CCn1[se]c2ccccc2c1=O,IC50,MCF7 [3],29 µM
O=c1c2ccccc2[se]n1C1CCCCC1,IC50,DU-145,5.7 µM
same,IC50,MCF7 [3],7.3 µM
CCC[C@@H](Cc1c[nH]c2ccccc12)NS(=O)(=O)c1c(C(C)C)cc(C(C)C)cc1C(C)C,IC50,HeLa,30.8 µM
C=CCc1cc(/C=C2\CN(Cc3ccccc3)C/C(=C\c3ccc(O)c(CC=C)c3)C2=O)ccc1O,IC50,SGC-7901,6 µM
same,IC50,BGC-823 [2],6.9 µM
C=CCSC[C@H](NC(=O)C(C)c1ccc2cc(OC)ccc2c1)C(=O)OCC (stereo partly drawn),IC50,SW480,31 µM
C=CCc1cccc(/C=N/NC(=O)Cn2cnc3ccc([N+](=O)[O-])cc3c2=O)c1O,IC50,PC-3,0.07 µM
same,IC50,NCI-H23,0.03 µM
same,IC50,SW-620,0.07 µM
C=CCNC(=S)NC(=O)c1ccccc1,IC50,MCF7 [4],0.6 µM
same,IC50,MCF7 [3],1.5 µM
C=CCSCC(N)C(=O)OOc1ccc(CNC(=O)CCCCCCCC)cc1OC (stereo not drawn),IC50,MCF7 [5],66 µM
C=CCSC[C@H](NC(=O)Cc1ccccc1Nc1c(Cl)cccc1Cl)C(=O)OCC,IC50,SW480,31 µM
C=CCSC[C@H](NC(=O)c1ccccc1O)C(=O)OCC,IC50,SW480,31 µM
C=CCSSSCC=C [ALLITRIDIN],inhibition in vivo at 20 mg/kg,BGC-823 [6],38%
same,inhibition in vivo at 40 mg/kg,BGC-823 [7],57%
same,inhibition in vivo at 30 mg/kg,BGC-823 [8],50%
C/C=C/c1ccc(OC)cc1 [ANETHOLE],GI50,MG-63,60.2 µM
same,viability at 50 µM,MDA-MB-231 [9],60%
same,Activity,Ca9-22 [10],42.7%
same,Activity,Ca9-22 [11],5.2%
C=CCSCC=C [DIALLYL SULFIDE],inhibition in vivo at 50 mg/kg,Rattus norvegicus [12],75%
same,inhibition in vivo at 50 mg/kg,Rattus norvegicus [13],68%
same,inhibition in vivo at 50 mg/kg,Rattus norvegicus [14],60%
COc1cccc2c1C(=O)c1c(O)c3c(c(O)c1C2=O)C[C@@](O)(C(=O)CO)C[C@@H]3O[C@H]1C[C@H](N)[C@H](O)[C@H](C)O1 [DOXORUBICIN],IC50,SGC-7901,36.9 µM
same,IC50,MCF7 [15],0.088 µM
same,IC50,BGC-823 [2],38.2 µM
same,viability at 0.5 µM,MDA-MB-231 [16],40%
same,IC50,MCF7 [17],0.5 µM
C=C1[C@H](CO)[C@@H](O)C[C@@H]1n1cnc2c(=O)[nH]c(N)nc21 [ENTECAVIR ANHYDROUS],CC50,HepG2 [18],30 µM
same,EC50,HepG2 [19],0.00375 µM
C=CCc1ccc(O)c(OC)c1 [EUGENOL],IC50,MCF7 [1],> 1500 µM
same,inhibition at 40 µM,MDA-MB-231 [20],> 90%
same,inhibition at 60 µM,SK-BR-3 [21],> 90%
same,inhibition at 60 µM,MDA-MB-231 [22],> 90%
same,inhibition at 40 µM,SK-BR-3 [23],> 90%
CC(C)(C)NC(=O)[C@H]1CC[C@H]2[C@@H]3CC[C@H]4NC(=O)C=C[C@]4(C)[C@H]3CC[C@]12C [FINASTERIDE],inhibition in vivo at 5 mg/kg,Rattus norvegicus [24],52%
same,inhibition in vivo at 5 mg/kg,Rattus norvegicus [25],55%
same,inhibition in vivo at 5 mg/kg,Rattus norvegicus [26],53%
COC1=C2C[C@@H](C)C[C@H](OC)[C@H](O)[C@@H](C)/C=C(\C)[C@H](OC(N)=O)[C@@H](OC)/C=C\C=C(/C)C(=O)NC(=CC1=O)C2=O [GELDANAMYCIN],IC50,SK-BR-3 [27],0.004 µM
same,IC50,MCF7 [3],0.011 µM
CCCCCCCCC(=O)NCc1ccc(O)c(OC)c1 [NONIVAMIDE],IC50,MCF7 [5],2240 µM
C=CCc1cccc(/C=N/NC(=O)CN2CCN(Cc3ccccc3)CC2)c1O [PAC-1],IC50,HL-60,0.92 µM
same,IC50,NCI-H226,0.35 µM
same,IC50,MCF7 [3],> 75 µM
C=CCc1ccc2c(c1)OCO2 [SAFROLE],Activity,[28],50%
same,EC50,[29],450 µM
C=CCNC1=C2C[C@@H](C)C[C@H](OC)[C@H](O)[C@@H](C)/C=C(\C)[C@H](OC(N)=O)[C@@H](OC)/C=C\C=C(/C)C(=O)NC(=CC1=O)C2=O [TANESPIMYCIN],IC50,SK-BR-3 [27],0.004 µM
same,IC50,MCF7 [3],0.005 µM
